The values below come from patent publication US20120101093A1, “SUBSTITUTED IMIDAZO[1,2-A]PYRIDINE DERIVATIVES, PHARMACEUTICAL COMPOSITIONS, AND METHODS OF USE AS BETA-SECRETASE INHIBITORS” (HIGH POINT PHARMACEUTICALS, LLC, priority 2009, published 2012).

As a reminder, the IC50 is the concentration that inhibits the measured activity by half. One may read the EC50 as the midpoint of the concentration-response curve. High values mean weaker potency, low ones greater potency.

One experiment has as its target T1, BACE-1 enzyme (Homo sapiens, UniProt P56817).
T1 construct: purchased R & D Systems 931AS
Description: BACE Fluorescence Resonance Energy Transfer (FRET) Assay. The experiment is classed as biochemical. To be noted: pH 4-4.5, 30 min pre-incubation, about 1.5 hours reaction. A digest of the protocol: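 BACE-1 enzyme pre-incubated 30 min with compound in 7.5% DMSO in 50 mM sodium acetate pH 4-4.5, 0.01% CHAPS, 0.0125% Triton X-100, 0.006% EDTA. Rhodamine/quencher peptide substrate added; ~1.5 h at room temperature, fluorescence read at 540/585 nm. IC50 or percent inhibition at one concentration.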

Experiment [1] deals with Aβ1-40 secreted from HEK293 cells stably expressing wildtype human APP695 protein (HEK-APPwt cells). Put plainly: Aβ Cell Based Assay (Aβ1-40 secretion, ELISA). The following applies: Homo sapiens, HEK293, 6 h, 6 hours incubation, reduction of Aβ1-40 secretion. The method, then:
Aβ Cell Based Assay Procedure
In the following assay, the proteolytic activity of BACE in cells exposed to varying concentrations of a compound of interest is measured by observing the amount of Aβ1-40 secreted from HEK293 cells (Human Embryonic Kidney epithelial cell line) stably expressing wildtype human APP695 protein (HEK-APPwt cells).
HEK-APPwt cells were grown in high glucose DMEM (Dulbecco's Modified Eagles Medium SIGMA Cat.# D5796) supplemented with 25 mM HEPES (4-(2-hydroxyethyl)-1-piperazineethanesulfonic acid) (pH 7.4) (Invitrogen Cat.# 15630-114), 0.1 mM NEAA (Non-essential Amino Acids) (BioWhittaker Cat. #13-114E), 10% fetal bovine serum (SIGMA Cat. #F4135) and 250 μg/mL hygromycin (Invitrogen Cat. #10687-010) in T-225 flasks at 37° C. with 5% CO2 and humidity control.
Test compounds were initially prepared in DMSO and diluted with DMEM media containing 2% FBS (Fetal bovine serum). Ten standard compound solutions were prepared having a range of concentrations. The standard compound solutions were used to determine the EC50 of the test compound. The range of concentrations chosen may depend on the compound's predicted potency.
To prepare the cells for the assay, a flask containing HEK-APPwt cells were trypsinized briefly (1 mL trypsin), and once the cells detached, 4 mL of 10% FBS-DMEM was added to the flask. The detached cells were centrifuged at 900 rpm for 5 min to form a pellet.
The HEK-APPwt cell pellet was re-suspended with 10 mL DMEM media containing 2% FBS. 80 μL of the cell suspension was added to each well of a 96-well cell culture plate to give 100×10^4cells/ml. 10 μL of a standard compound solution was added to each well of the 96-well cell culture plate followed by 10 μL of Alamar blue solution. The cells were incubated at 37° C. in a 5% CO2 incubator for 6 hours.
At the end of the incubation, the plates were removed from incubator, and the supernatant was collected. A≈1-40 concentration in the medium was measured by using a commercial Aβ1-X ELISA kit (IBL, Japan Cat. #27729). Briefly, the ELISA plates were coated with an anti-human AO (N)(82E1) mouse IgG monoclonal antibody. A horseradish peroxidase conjugated anti-human Aβ11-28 mouse IgG monoclonal antibody was used for detection. The cell culture supernatant was diluted with EIA buffer +protease inhibitors (kit buffer containing protease inhibitors (1 mL PI/30 mL buffer)). A 100 μL aliquot of the diluted supernatant was added to each well of the ELISA plate and incubated for 6 hrs at 4° C. The ELISA plate was washed 8 times with phosphate buffered saline (PBS) containing 0.05% Tween 20.
A 100 μL of detection antibody was then added and incubated for 1 hour at 4° C. The plate was washed 8 times with PBS buffer containing 0.05% Tween 20 followed by addition of 100 μL of the chromogen tetramethylbenzidine (TMB). The plate was incubated in the dark at room temperature for about 30 min and a stop solution (1N H2SO4) was added.
The intensity of the color developed was measured at 450 nm. The optical density at 450 nm (OD450) is proportional to the concentration of human Aβ1-40 secreted by the cell. As a reference, N-[N-(3,5-difluorophenacetyl-L-alanyl)]-S-phenylglycine t-butyl ester (DAPT, a γ-secretase inhibitor) was used to indicate 100% inhibition of BACE activity. Thus, the assay measures the ability of a compound of interest to reduce Aβ1-40 secretion. For select compounds, compound potency is reported in Table 3 as the EC50 by calculating the percent inhibition at all concentration levels and the data were fit with non-linear curve fitting algorithm using GraphPad Prism.

T1 sequence (P56817 46-457 limits assumed): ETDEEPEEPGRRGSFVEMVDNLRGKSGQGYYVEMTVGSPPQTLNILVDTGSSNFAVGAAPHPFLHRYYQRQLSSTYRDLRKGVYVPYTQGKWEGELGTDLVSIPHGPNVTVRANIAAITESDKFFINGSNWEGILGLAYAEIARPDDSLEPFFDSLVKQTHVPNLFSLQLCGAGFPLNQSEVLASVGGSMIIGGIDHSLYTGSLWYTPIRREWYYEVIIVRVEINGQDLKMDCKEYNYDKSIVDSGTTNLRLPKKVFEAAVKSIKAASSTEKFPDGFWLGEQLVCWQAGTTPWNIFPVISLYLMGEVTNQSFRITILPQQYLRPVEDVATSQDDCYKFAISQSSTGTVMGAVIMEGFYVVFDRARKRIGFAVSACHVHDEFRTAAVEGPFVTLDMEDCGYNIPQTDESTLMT

`Cc1cccn2cc(C(=O)Nc3nc4cc(-c5cccc(Cl)c5)ccc4[nH]3)nc12` [Example 51, 8-Methyl-imidazo[1,2-a]pyridine-2-carboxylic acid [5-(3-chloro-phenyl)-1H-benzoimidazol-2-yl]-amide] registered an IC50 at BACE-1 enzyme of 0.96 µM. In experiment [1], this molecule gave an EC50 of 1.84 µM.
Regarding `O=C(Nc1nc2cc(OCc3ccc(C(F)(F)F)cc3)ccc2[nH]1)c1cn2cc(-c3ccccc3)ccc2n1` [Example 52, 6-Phenyl-imidazo[1,2-a]pyridine-2-carboxylic acid [5-(4-trifluoromethyl-benzyloxy)-1H-benzoimidazol-2-yl]-amide], the IC50 at BACE-1 enzyme was 5.28 µM. In experiment [1], this molecule displayed an EC50 of 0.51 µM.
`Cc1cccc2nc(C(=O)Nc3nc4cc(-c5cccc(C(F)(F)F)c5F)ccc4[nH]3)cn12` [Example 53, 5-Methyl-imidazo[1,2-a]pyridine-2-carboxylic acid [5-(2-fluoro-3-trifluoromethyl-phenyl)-1H-benzoimidazol-2-yl]-amide]: at BACE-1 enzyme, it took 0.26 µM to reach half-maximal inhibition (IC50). This molecule also yielded an EC50 in experiment [1] of 0.23 µM.
On the same counts, the results for `COc1cc(-c2ccc3[nH]c(NC(=O)c4cn5c(C)cccc5n4)nc3c2)cc(C(F)(F)F)c1` [Example 54, 5-Methyl-imidazo[1,2-a]pyridine-2-carboxylic acid [5-(3-methoxy-5-trifluoromethyl-phenyl)-1H-benzoimidazol-2-yl]-amide] are 0.39 µM and 0.98 µM.
On the same counts, the results for `O=C(Nc1nc2cc(-c3ccc(F)c(C(F)(F)F)c3)ccc2[nH]1)c1cn2c(C(F)(F)F)cccc2n1` [Example 55, 5-Trifluoromethyl-imidazo[1,2-a]pyridine-2-carboxylic acid [5-(4-fluoro-3-trifluoromethyl-phenyl)-1H-benzoimidazol-2-yl]-amide] are 0.26 µM and 2.36 µM.
Regarding `Cc1cccc2nc(C(=O)Nc3nc4ccc(-c5cc(F)cc(Cl)c5)cc4[nH]3)cn12` [Example 56, 5-Methyl-imidazo[1,2-a]pyridine-2-carboxylic acid [6-(3-chloro-5-fluoro-phenyl)-1H-benzoimidazol-2-yl]-amide], half-maximal inhibition against BACE-1 enzyme (IC50) was put at 0.28 µM. This molecule also came in with an EC50 in experiment [1] of 0.24 µM.
As for `O=C(Nc1nc2cc(-c3ccc(F)c(C(F)(F)F)c3)ccc2[nH]1)c1cn2c(F)cccc2n1` [Example 58, 5-Fluoro-imidazo[1,2-a]pyridine-2-carboxylic acid [5-(4-fluoro-3-trifluoromethyl-phenyl)-1H-benzoimidazol-2-yl]-amide], on BACE-1 enzyme, the IC50 came out at 0.76 µM. In experiment [1], the midpoint of the response, the EC50, lay at 0.4 µM.
`Cc1ccc2nc(C(=O)Nc3nc4cc(-c5cccc(C(F)(F)F)c5)ccc4[nH]3)cn2c1` [Example 59, 6-Methyl-imidazo[1,2-a]pyridine-2-carboxylic acid [5-(3-trifluoromethyl-phenyl)-1H-benzoimidazol-2-yl]-amide]: the midpoint of inhibition on BACE-1 enzyme, the IC50, lay at 0.41 µM. In addition, the midpoint of the response in experiment [1], the EC50, lay at 3.16 µM.
As for `Cc1cccc2nc(C(=O)Nc3nc4cc(/C=C/c5ccc(C(F)(F)F)cc5)ccc4[nH]3)cn12` [Example 61, 5-Methyl-imidazo[1,2-a]pyridine-2-carboxylic acid {5-[(E)-2-(4-trifluoromethyl-phenyl)-vinyl]-1H-benzoimidazol-2-yl}-amide], the IC50 against BACE-1 enzyme was 0.22 µM. Moreover, the EC50 in experiment [1] was found to be 0.28 µM.
On the same counts, the results for `Cc1cccc2nc(C(=O)Nc3nc4cc(CCc5ccc(C(F)(F)F)cc5)ccc4[nH]3)cn12` [Example 62, 5-Methyl-imidazo[1,2-a]pyridine-2-carboxylic acid {5-[2-(4-trifluoromethyl-phenyl)-ethyl]-1H-benzoimidazol-2-yl}-amide] are 0.4 µM and 0.87 µM.
Regarding `Cc1cccc2nc(C(=O)Nc3nc4cc(-c5ccc(F)c(F)c5)ccc4[nH]3)cn12` [Example 63, 5-Methyl-imidazo[1,2-a]pyridine-2-carboxylic acid [5-(3,4-difluoro-phenyl)-1H-benzoimidazol-2-yl]-amide], at BACE-1 enzyme, the IC50 was determined as 1.15 µM. Further, a half-maximal response in experiment [1] (EC50) required 1.32 µM.
